What was measured:
Female BALB/c mice [1] = experiment: Performance evaluation of in vivo delivery of Fluc mRNA lipid nanoparticle (IVIS, body and organs); settings: Fluc mRNA LNP; for Liver (fluorescence expression intensity) / Spleen (fluorescence expression intensity): 75 μL IV; for Liver (fluorescence expression intensity) / Spleen (fluorescence expression intensity) / Total flux (fluorescence expression intensity) / (Spleen/Total Flux) * 100%: 6 hours after injection; for Liver (fluorescence expression intensity) / Spleen (fluorescence expression intensity) / Total flux (fluorescence expression intensity): IVIS; for Total flux (fluorescence expression intensity): 75 μL tail vein injection (IV); for (Spleen/Total Flux) * 100% / Multiple of spleen delivery/total delivery to amino lipid compound 118: IV; for Multiple of spleen delivery/total delivery to amino lipid compound 118: relative to amino lipid compound 118
Summary of the method: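 Female BALB/c mice, 6-8 weeks, received 75 μL Fluc mRNA-LNP by tail-vein injection, 3 mice per formulation. At 6 h, 200 μL D-luciferin was injected, mice were anesthetized with isoflurane, and IVIS bioluminescence was imaged in body and organs.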

[2] = Preparation and characterisation of mRNA-encapsulating lipid nanoparticle (encapsulation efficiency, particle size); format: physicochemical; settings: LNP encapsulating Fluc mRNA; Lipid:DSPC:CHO-HP:M-DMG-2000 48:10:40.5:1.5
Summary of the method: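 Fluc mRNA in sodium acetate buffer mixed with ethanolic amino lipid:DSPC:CHO-HP:M-DMG-2000 (48:10:40.5:1.5 molar) by microfluidics, mRNA:lipid mass ratio 1:10, then dialysed 2 h against Tris-8% sucrose and 0.22 μm filtered. Final mRNA 0.2 g/L; particle size and encapsulation efficiency measured.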

Female BALB/c mice [3] = experiment: Humoral immunity test for total binding IgG antibody (ELISA, SARS-COV-2 antigen protein) in serum of immunized mice; format: in vivo; settings: IN002.5.1 mRNA LNP, 50 μL IM, serum on 14th day after immunization; FIG. 5-6

Row | Structure (SMILES) | Liver (fluorescence expression intensity) (Female BALB/c mice [1]) | Spleen (fluorescence expression intensity) (Female BALB/c mice [1]) | Total flux (fluorescence expression intensity) (Female BALB/c mice [1]) | (Spleen/Total Flux) * 100% (Female BALB/c mice [1]) [%] | Multiple of spleen delivery/total delivery to amino lipid compound 118 (Female BALB/c mice [1]) | Encapsulation efficiency [2] [%] | Humoral immunity effect (IgG titer) compared to ALC0315 (Female BALB/c mice [3])
1 | CCCCCCC(CCCCCC)OC(=O)CCCCCCCCC(CCCCCCCCC(=O)OC(CCCCCC)CCCCCC)OC(=O)N(CCCN(C)C)CCC(=O)OCCCC [Compound 264] | 1.61E+08 | 8.05E+06 | 4.95E+08 | 1.63 | 4.78 | 94.12 | better humoral immunity effect
2 | CCCCCCCOC(=O)CCN(CCCN(C)C)C(=O)OC(CCCCCCCCC(=O)OC(CCCCCC)CCCCCC)CCCCCCCCC(=O)OC(CCCCCC)CCCCCC [Compound 267] | 9.91E+07 | 1.54E+06 | 4.01E+08 | 0.38 | 1.13 | 93.13 | 
3 | CCCCCCC(CCCCCC)OC(=O)CCCCCCCCC(CCCCCCCCC(=O)OC(CCCCCC)CCCCCC)OC(=O)N(CCCN(C)C)CC(=O)OCCCC [Compound 270] | 1.34E+08 | 7.36E+06 | 4.40E+08 | 1.67 | 4.92 | 93.46 | better humoral immunity effect
4 | CCCCCCOC(=O)CN(CCCN(C)C)C(=O)OC(CCCCCCCCC(=O)OC(CCCCCC)CCCCCC)CCCCCCCCC(=O)OC(CCCCCC)CCCCCC [Compound 272] | 7.42E+07 | 3.03E+06 | 4.04E+08 | 0.75 | 2.21 | 93.96 | 
5 | CCCCCCCOC(=O)CN(CCCN(C)C)C(=O)OC(CCCCCCCCC(=O)OC(CCCCCC)CCCCCC)CCCCCCCCC(=O)OC(CCCCCC)CCCCCC [Compound 273] | 4.33E+07 | 2.37E+06 | 1.78E+08 | 1.33 | 3.92 | 87.42 | better humoral immunity effect
